The text below walks through data of patent US20220331301A1, “CYSTIC FIBROSIS TRANSMEMBRANE CONDUCTANCE REGULATOR MODULATORS FOR TREATING AUTOSOMAL RESESSIVE POLYCYSTIC KIDNEY DISEASE” (The Johns Hopkins University, priority 2021, published 2022).

The subject of one experiment is CFTR. Description: CFTR colocalization in bile duct epithelia of Pkhd1^del3-4/del3-4 mice. The class given is in vivo. The settings on record: 30 mg/kg every other day for 30 days. The protocol:
FIG. 13A and FIG. 13B show CFTR and CK19 colocalization in WT and Pkhd1^del3-4/del3-4 mice bile duct epithelia. […] Merged red and green channels are shown, wherein yellow indicates colocalization; the white square indicates the area of enlargement shown. FIG. 13B summarizes the Pearson's Correlation coefficient R. Bars represent the means±SEM. Samples were incubated with 5 μg/ml primary antibody CFTR (596) and CK19 (Invitrogen #PA5-29548) in blocking buffer for 16 hours at 4° C. Goat anti-rabbit Alexa Fluor 594 and anti-mouse Alexa Flour 488 conjugated secondary antibodies were used at a 1/250 dilution for 1 hour to label the proteins. Scale bar is 10 μm. **P<0.01, ****P<0.0001.
FIG. 14A and FIG. 14B show CFTR and E-Cadherin colocalization in WT and Pkhd1^del3-4/del3-4 mice bile duct epithelia. […] Merged red and green channels are shown, wherein yellow indicates colocalization; the white square indicates the area of enlargement shown. E-Cadherin is a marker of the lateral junctional membrane of epithelial cells (see, e.g., Bruser (2017) Adherens Junctions on the Move-Membrane Trafficking of E-Cadherin. Cold Spring Harb. Perspect. Biol. 9, a029140, incorporated herein by reference). FIG. 14B summarizes the Pearson's Correlation coefficient R in mutant cells. Samples were incubated with 5 μg/ml primary antibody CFTR (596) and eCadherin (R&D #AF748) in blocking buffer for 16 hours at 4° C. Goat anti-mouse Alexa Fluor 594 and anti-goat Alexa Flour 488 conjugated secondary antibodies were used at a 1/250 dilution for 1 hour to label the proteins. Scale bar is 10 μm. As shown by the data, Pkhd1^del3-4/del3-4 cholangiocytes have much greater colocalization of CFTR with the apical/lateral marker compared to WT cells. VX-809 treatment decreases E-cadherin colocalization of CFTR in mutant mice cells. All images were captured with a 63× oil objective. Significance was analyzed using unpaired t test. […]
FIG. 15A and FIG. 15B show CFTR and Na/K ATPase colocalization in WT and Pkhd1^del3-4/del3-4 mice bile duct epithelia. […] Significance was analyzed using unpaired t test. […]

The subject of another experiment is HSP27, 70, 90 and Aha1. Description: Western blot of chaperone expression in cholangiocytes. The class given is cell-based, mice. The settings on record: Pkhd1del4/del4 cholangiocytes. The protocol: FIG. 9A, FIG. 9B, FIG. 9C, FIG. 9D and FIG. 9E show chaperone expression is altered Pkhd1del4/del4 cholangiocytes. (FIG. 9A) Representative Western blot images of HSP27, 70, 90 and Aha1 in WT and Pkhd1del4/del4 cholangiocytes treated with VX-809 as described in previous figures. (FIG. 9B, FIG. 9C, FIG. 9D and FIG. 9E) Columns represent averages±standard errors of Hsp 27, Aha1, HSP70 and HSP90 expression. Data were analyzed by non-parametric t-test. n=4 for each treated and control groups. **P. Please note the large decrease in Hsp27 and increases in Aha1, HSP70 and Hsp 90 in Pkhd1del4/del4 cholangiocytes compared to WT.
We have previously shown that CFTR-based correctors rescue ΔF508-CFTR by altering the proteostatic network of ER quality control proteins (HSPs) involved in its degradation. Lopes-Pacheco et al., 2015. […] To continue this line of investigation, we measured the steady-state levels of HSPs in Pkhd1del4/del4 cholangiocytes (FIG. 9). In the mutant cholangiocytes, HSP27 was reduced by half whereas, HSP70 was increased by 8 fold, HSP90 was by 2-fold and Aha1 by 2.5 fold.

“Also recorded” adds a separate entry of the source.

Take lumacaftor [VX-809]: in the experiment on CFTR, the CFTR-CK19 colocalization result was “significantly lowered the colocalization”, the “CFTR-Na/K ATPase colocalization (basolateral membrane)” value is “increased the colocalization with the basolateral membrane; also recorded: significantly increased CFTR-Na/K ATPase colocalization” and the CFTR-eCadherin colocalization result is listed as “significantly lowered the colocalization”. In the experiment on HSP27, 70, 90 and Aha1, the Aha1 level result is given as “reduced the levels; also recorded: correction toward WT values”, the HSP70 level result is given as “reduced the levels; also recorded: correction toward WT values” and the HSP90 level entry is given as “reduced the levels; also recorded: correction toward WT values”.
